# Assay results taken from patent publication US20170326106A1, “TREATMENT OF AGE RELATED MACULAR DEGENERATION WITH A SMALL ACTIVE CHOROIDAL NEOVASCULARIZATION LESION” (BAYER HEALTHCARE LLC, priority 2014, published 2017).
# Key:
# Format in all cases: in vivo, human
# [1] = system: Chinese subjects with age-related neovascular or wet age-related macular degeneration; assay: Same clinical study, central retinal thickness by optical coherence tomography
# Experimental: (§1) A total of 304 Chinese subjects with age-related neovascular or wet age-related macular degeneration were enrolled in a randomized, double-blind clinical study to assess the efficacy of intravitreal (IVT) administrated aflibercept compared with V®-PDT on the mean change in BCVA (Best corrected visual acuity) from baseline to Week 28. BCVA of the study eye was assessed according to the standard procedures developed for the ETDRS (Early Treatment Diabetic Retinopathy Study) adapted for Age Related Eye Disease Study (AREDS). The key inclusion criteria were as follows: • Signed and dated written ICF. • Men and women ≧50 years of age. • Active predominantly classic, subfoveal choroidal neovascularization (CNV) lesions secondary to AMD, including juxtafoveal lesions that affect the fovea, as evidenced by fluorescein angiography (FA), in the study eye. • The area of the CNV had to occupy at least 50% of the total lesion. • ETDRS best corrected visual acuity (BCVA) of 73 to 25 letters in the study eye (Snellen activity equivalent of 20/40 to 20/320 in the study eye).
# (§2) The following key exclusion criteria applied for the study eye: • Total lesion size is greater than 12 disc areas (30.5 mm^2, including blood, scars and neovascularization), as assessed by FA • Sub-retinal hemorrhages that is >50% of the total lesion area, or if the blood is under the fovea and is 1 or more disc areas in size. (If the blood is under the fovea, then the fovea must be surrounded by 270 degrees by visible CNV.) • Presence of CNV with an origin other than wAMD. History or clinical evidence of diabetic retinopathy, diabetic macular edema or any retinal vascular disease other than wAMD. Particular attention should be made to exclude subjects with polypoidal choroidal vasculopathy (PCV). • Presence of scar, fibrosis, or atrophy involving the center of the fovea that indicates substantial irreversible vision loss. • Presence of retinal pigment epithelial tears or rips involving the macula.
# (§3) Eligible patients were randomized 3:1 to receive aflibercept (VTE) 2Q8 or V®-PDT (228 VTE+76 PDT). 194 patients with active CNV lesions >=50% (147 VTE2Q8+47 PDT) and 106 patients with active CNV lesions <50% (78 VTE2Q8+28 PDT) were included. The lesion size was determined by a central reading center based on the MPS protocol [Macular Photocoagulation Study Group, Arch Ophthalmol 1991, 109:1242-1257]. The active CNV size, the area of CNV (mm^2) as well as the total lesion size was measured using the FA. The central retinal thickness was determined by optical coherence tomography. In the VTE2Q8 group patients were treated with 2 mg (0.05 mL) aflibercept administered intravitreally at baseline, week 4, 8, 16, 24, 32, 40 and 48. […]
# [2] = system: Chinese subjects with age-related neovascular or wet age-related macular degeneration; assay: Randomized double-blind clinical study, BCVA of the study eye by ETDRS
# Experimental: as §1, §2
# Eligible patients were randomized 3:1 to receive aflibercept (VTE) 2Q8 or V®-PDT (228 VTE+76 PDT). 194 patients with active CNV lesions >=50% (147 VTE2Q8+47 PDT) and 106 patients with active CNV lesions <50% (78 VTE2Q8+28 PDT) were included. The lesion size was determined by a central reading center based on the MPS protocol [Macular Photocoagulation Study Group, Arch Ophthalmol 1991, 109:1242-1257]. The active CNV size, the area of CNV (mm^2) as well as the total lesion size was measured using the FA. The central retinal thickness was determined by optical coherence tomography. In the VTE2Q8 group patients were treated with 2 mg (0.05 mL) aflibercept administered intravitreally at baseline, week 4, 8, 16, 24, 32, 40 and 48. In the PDT group V®-PDT was performed at baseline and potential PDT retreatment according to the guidelines for the use of PDT treatment in wAMD [Verteporfin Roundtable Participants, Retina. 2005; 25(2):119-34] were performed at week 12 and 24. At Week 28, after assessment of the primary and secondary endpoints, subjects in the PDT→VEGF Trap-Eye group received an IVT injection of 2.0 mg VEGF Trap-Eye, followed by additional 2.0 mg VEGF Trap-Eye injections at Weeks 32, 36, 40, and 48.
# [3] = system: Chinese subjects with age-related neovascular or wet age-related macular degeneration; assay: Same clinical study, CNV lesion size by fluorescein angiography (MPS protocol)
# Experimental: as §1, §2, §3
# [4] = active CNV lesion <50%, week 28
# [5] = active CNV lesion <50%, week 52, PDT group on VEGF Trap-Eye from week 28
# [6] = active CNV lesion >=50%, week 28
# [7] = active CNV lesion >=50%, week 52, PDT group on VEGF Trap-Eye from week 28
substance,measurement,setting,value
Aflibercept [VTE2Q8],Mean change in central retinal thickness,[1]; [4],−180.6 um
same,Mean change in central retinal thickness,[1]; [5],−185.5 um
same,Mean change in central retinal thickness,[1]; [6],−180.4 um
same,Mean change in central retinal thickness,[1]; [7],−192.1 um
same,Mean change of BCVA,"[2]; active CNV lesion <50% of total lesion size, week 28, from baseline",16.7 letters
same,Mean change of BCVA,"[2]; active CNV lesion <50% of total lesion size, week 28, from baseline, listed as aflibercept",16.7 (−21 to 59) letters
same,Mean change of BCVA,"[2]; active CNV lesion <50% of total lesion size, week 52, from baseline, PDT group received IVT 2.0 mg VEGF Trap-Eye from week 28",18.1 letters
same,Proportion of patients who gained 5 or more letters,[2]; [4],85.9%
same,Proportion of patients who gained 10 or more letters,[2]; [4],73.1%
same,Proportion of patients who gained 15 or more letters,[2]; [4],57.7%
same,Proportion of patients who lost 5 or more letters,[2]; [4],5.1%
same,Proportion of patients who lost 10 or more letters,[2]; [4],3.8%
same,Proportion of patients who lost 15 or more letters,[2]; [4],2.6%
same,Proportion of patients who maintained vision (letter loss <15 letters),[2]; [4],97.4%
same,Proportion of patients who gained 5 or more letters,[2]; [5],88.5%
same,Proportion of patients who gained 10 or more letters,[2]; [5],78.2%
same,Proportion of patients who gained 15 or more letters,[2]; [5],69.2%
same,Proportion of patients who lost 5 or more letters,[2]; [5],6.4%
same,Proportion of patients who lost 10 or more letters,[2]; [5],3.8%
same,Proportion of patients who lost 15 or more letters,[2]; [5],3.8%
same,Proportion of patients who maintained vision (letter loss <15 letters),[2]; [5],96.2%
same,Mean change of BCVA,"[2]; active CNV lesion >=50% of total lesion size, week 28, from baseline",12.7 letters
same,Mean change of BCVA,"[2]; active CNV lesion >=50% of total lesion size, week 28, from baseline, listed as aflibercept",12.7 (−29 to 40) letters
same,Mean change of BCVA,"[2]; active CNV lesion >=50% of total lesion size, week 52, from baseline, PDT group received IVT 2.0 mg VEGF Trap-Eye from week 28",14.0 letters
same,Proportion of patients who gained 5 or more letters,[2]; [6],77.6%
same,Proportion of patients who gained 10 or more letters,[2]; [6],66.7%
same,Proportion of patients who gained 15 or more letters,[2]; [6],45.6%
same,Proportion of patients who lost 5 or more letters,[2]; [6],6.8%
same,Proportion of patients who lost 10 or more letters,[2]; [6],2.7%
same,Proportion of patients who lost 15 or more letters,[2]; [6],0.7%
same,Proportion of patients who maintained vision (letter loss <15 letters),[2]; [6],99.3%
same,Proportion of patients who gained 5 or more letters,[2]; [7],78.9%
same,Proportion of patients who gained 10 or more letters,[2]; [7],67.3%
same,Proportion of patients who gained 15 or more letters,[2]; [7],53.1%
same,Proportion of patients who lost 5 or more letters,[2]; [7],8.2%
same,Proportion of patients who lost 10 or more letters,[2]; [7],4.1%
same,Proportion of patients who lost 15 or more letters,[2]; [7],2.0%
same,Proportion of patients who maintained vision (letter loss <15 letters),[2]; [7],98.0%
same,mean change from baseline BCVA letter score,"[2]; whole study population irrespective of the active CNV lesion size, week 28, range in brackets",14.0 (−29 to 59)
same,Mean change in CNV lesion size,[3]; [4],−0.688 mm^2
same,Mean change in CNV lesion size,[3]; [5],−0.688 mm^2
same,Mean change in CNV lesion size,[3]; [6],−1.009 mm^2
same,Mean change in CNV lesion size,[3]; [7],−1.173 mm^2
